According to ChEMBL document CHEMBL1949519:
Blank lines part the entries; values can stand above or below the compound they belong to. The source made the active and inactive calls. The rule behind the calls is not given here.

Legend:
Format in all cases: cell-based
Details in all cases: COS-1
[1] = target: T1, Long-wave-sensitive opsin 1 (Homo sapiens) (UniProt P04000); test: Inverse agonist activity at human red cone opsin expressed in COS1 cells assessed as transducer activity at 2 mM by radioactive filter binding assay
T1 sequence (whole entry): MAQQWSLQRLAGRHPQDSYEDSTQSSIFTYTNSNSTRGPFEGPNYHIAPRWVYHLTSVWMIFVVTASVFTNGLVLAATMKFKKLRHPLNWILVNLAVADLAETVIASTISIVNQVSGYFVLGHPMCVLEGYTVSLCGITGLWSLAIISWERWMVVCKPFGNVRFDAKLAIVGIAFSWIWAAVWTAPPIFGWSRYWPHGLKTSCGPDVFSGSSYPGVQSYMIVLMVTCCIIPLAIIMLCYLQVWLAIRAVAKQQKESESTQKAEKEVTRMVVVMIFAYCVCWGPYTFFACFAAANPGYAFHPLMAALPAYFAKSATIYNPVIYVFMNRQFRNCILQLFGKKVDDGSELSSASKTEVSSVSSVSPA

[2] = target: T1, Long-wave-sensitive opsin 1 (Homo sapiens); test: Agonist activity at human red cone opsin expressed in COS1 cells assessed as activation of transducer at 20 uM by radioactive filter binding assay
[3] = target: T1, Long-wave-sensitive opsin 1 (Homo sapiens); test: Inverse agonist activity at human red cone opsin expressed in COS1 cells assessed as transducer activity at 20 uM by radioactive filter binding assay
[4] = target: T1, Long-wave-sensitive opsin 1 (Homo sapiens); test: Inverse agonist activity at human red cone opsin expressed in COS1 cells assessed as transducer activity at 200 uM by radioactive filter binding assay

Activity [1]: Active
Compound: CC1CCCC(C)C1 (stereo not given)

Activity [2]: inactive
Compound: CC1=C(/C=C/C(C)=C/C=C/C(C)=C/C=C/C=O)C(C)(C)CCC1

Compound: C1CCCCC1
Activity [1]: inactive

Activity [3]: Active
Compound: CC1=C(/C=C/C(C)=C\C=C\C=O)C(C)(C)CCC1

Activity [4]: Active
Compound: CC1=C(C=O)C(C)(C)CCC1
